# Data reported in patent publication EP0326640B1, “(1R,5S,6S)-2-substituted thio-6 (R)-1-hydroxyethyl -1-methyl-carbapenem - carboxylic acid derivatives” (LEDERLE (JAPAN) LTD., priority 1987, dated 1989).
# What was measured:
# [1] = test system: P. aeruginosa resistant strains; assay: Sensitivity test against clinical isolates, agar plate dilution method; assay type: cell-based
# Method: The test procedures were based on the agar plate dilution method in accordance with the standard method of The Japanese Chemotherapy Society. The minimum inhibitory concentration (MIC) was determined in substantially the same manner as the test procedures II above using the 54 strains of P. aeruginosa having an anti-Pseudomonas resistance.
# [2] = test system: Citrobactor freundii GN 346; assay: Antibacterial activity against clinically isolated β-lactamase (cephalosporinase) producing strains (MIC); assay type: cell-based; conditions: cephalosporinase producing strain, SDA, 18 to 20 hours
# Method: (§1) The antibacterial activities against clinically isolated β-lactamase producing strains were tested by the agar plate dilution method in accordance with the standard method of The Japanese Chemotherapy Society [Chemotherapy, Vol. 29, 76-79 (1981)]. A solution of a cephalosporinase producing strain stored by Episome Research Institute, prepared by incubating the strain in a sensitivity test broth (STB; product of Nissui K. K.) for 18 hours, was diluted with a fresh STB solution so that the solution contained 10⁶ cells per milliliter. The diluted solution was then inoculated as spots in a microplanter on a sensitivity disk agar-N (SDA; product of Nissui K. K.) containing a test compound. The disk agar was then incubated for 18 to 20 hours. The minimum inhibitory concentration was determined as a minimum concentration in which the test microorganism no longer grew after a 18 to 20-hour incubation.
# Proteus morganii GN 5375 = assay: as above; assay type: cell-based; conditions: Morganella morganii, GN5375, cephalosporinase producing strain, SDA, 18 to 20 hours
# Method: as §1
# [3] = test system: Providencia rettgeri GN 5284; assay: as above; assay type: cell-based; conditions: cephalosporinase producing strain, SDA, 18 to 20 hours
# Method: as §1
# [4] = test system: Escherichia coli No. 1501; assay: as above; assay type: cell-based; conditions: cephalosporinase producing strain, SDA, 18 to 20 hours
# Method: as §1
# [5] = test system: Enterobacter cloacae GN 7471; assay: as above; assay type: cell-based; conditions: cephalosporinase producing strain, SDA, 18 to 20 hours
# Method: as §1
# [6] = test system: Pseudomonas cepacia GN 11164; assay: as above; assay type: cell-based; conditions: cephalosporinase producing strain, SDA, 18 to 20 hours
# Method: as §1
# Proteus vulgaris GN 7919 = assay: as above; assay type: cell-based; conditions: Proteus vulgaris GN 7919; cephalosporinase producing strain, SDA, 18 to 20 hours
# Method: as §1
# [7] = test system: Enterobacter cloacae GN 5797; assay: as above; assay type: cell-based; conditions: cephalosporinase producing strain, SDA, 18 to 20 hours
# Method: as §1
# Proteus morganii GN 5407 = assay: as above; assay type: cell-based; conditions: Morganella morganii, GN5407, cephalosporinase producing strain, SDA, 18 to 20 hours
# Method: as §1
# Proteus vulgaris GN 76 = assay: as above; assay type: cell-based; conditions: Proteus vulgaris GN 76; cephalosporinase producing strain, SDA, 18 to 20 hours
# Method: as §1
# [8] = test system: Enterobacter cloacae GN 7467; assay: as above; assay type: cell-based; conditions: Enterobacter cloacae, GN7467, Enterobacter cloacae GN 7467; cephalosporinase producing strain, SDA, 18 to 20 hours
# Method: as §1
# [9] = test system: Pseudomonas aeruginosa GN 918; assay: as above; assay type: cell-based; conditions: Pseudomonas aeruginosa, GN918, Pseudomonas aeruginosa GN 918; cephalosporinase producing strain, SDA, 18 to 20 hours
# Method: as §1
# [10] = test system: Pseudomonas aeruginosa GN 10367; assay: as above; assay type: cell-based; conditions: GN10367; Pseudomonas aeruginosa GN 10367; cephalosporinase producing strain, SDA, 18 to 20 hours; read-out: MIC
# Method: as §1
# Proteus vulgaris GN 4413 = assay: as above; assay type: cell-based; conditions: Proteus vulgaris GN 4413; cephalosporinase producing strain, SDA, 18 to 20 hours
# Method: as §1
# Escherichia coli No. 96 = assay: as above; assay type: cell-based; conditions: cephalosporinase producing strain, SDA, 18 to 20 hours
# Method: as §1
# Serratia marcescens L-82 = assay: as above; assay type: cell-based; conditions: cephalosporinase producing strain, SDA, 18 to 20 hours
# Method: as §1
# Escherichia coli GN 5482 = assay: as above; assay type: cell-based; conditions: cephalosporinase producing strain, SDA, 18 to 20 hours
# Method: as §1
# [11] = test system: Providencia rettgeri GN 4430; assay: as above; assay type: cell-based; conditions: cephalosporinase producing strain, SDA, 18 to 20 hours
# Method: as §1
# [12] = test system: Providencia rettgeri GN 4762; assay: as above; assay type: cell-based; conditions: Providencia rettgeri GN 4762; cephalosporinase producing strain, SDA, 18 to 20 hours
# Method: as §1
# [13] = test system: Klebsiella oxytoca GN 10650; assay: as above; assay type: cell-based; conditions: Klebsiella oxytoca GN 10650; cephalosporinase producing strain, SDA, 18 to 20 hours
# Method: as §1
# Proteus morganii GN 5307 = assay: as above; assay type: cell-based; conditions: Proteus morganii GN 5307; cephalosporinase producing strain, SDA, 18 to 20 hours
# Method: as §1
# [14] = test system: Serratia marcescens GN 10857; assay: as above; assay type: cell-based; conditions: Serratia marcescens GN 10857; cephalosporinase producing strain, SDA, 18 to 20 hours
# Method: as §1
# Serratia marcescens L-65 = assay: as above; assay type: cell-based; conditions: Serratia marcescens L-65; cephalosporinase producing strain, SDA, 18 to 20 hours
# Method: as §1
# [15] = test system: Citrobactor freundii GN 7391; assay: as above; assay type: cell-based; conditions: cephalosporinase producing strain, SDA, 18 to 20 hours
# Method: as §1
# [16] = test system: Pseudomonas aeruginosa GN 10362; assay: as above; assay type: cell-based; conditions: cephalosporinase producing strain, SDA, 18 to 20 hours
# Method: as §1
# [17] = test system: Pseudomanas aeruginosa NCTC 10940; assay: Antibacterial test, agar plate dilution method (MIC), standard strains; assay type: cell-based; conditions: MH agar, 37°C, 18 hours
# Method: (§2) The antibacterial activities were tested by an agar plate dilution method in accordance with the standard method of The Japanese Chemotherapy Society [Chemotherapy, Vol. 29, 76-79 (1981)].
# (§3) A Mueller-Hinton (MH) agar liquid medium of a test microorganism was cultured overnight at 37°C and the resultant culture medium was diluted with a buffered saline gelatin (BSG) solution to contain approximately 10⁶ cells of the test microorganisms per milliliter, and then the diluted solution was inoculated with a microplanter at the rate of approximately 5 microliters on a MH agar medium containing a test compound. This medium was then incubated at 37°C for 18 hours. The minimum inhibitory concentration (MIC) is determined as a minimum concentration in which no test microorganism could grow. It is noted here that the test organisms used were all standard strains.
# [18] = test system: Salmonella paratyphi 1015; assay: as above; assay type: cell-based; conditions: MH agar, 37°C, 18 hours
# Method: as §2, §3
# Salmonella typhi 901 = assay: as above; assay type: cell-based; conditions: MH agar, 37°C, 18 hours
# Method: as §2, §3
# [19] = test system: Salmonella enteritidis G14; assay: as above; assay type: cell-based; conditions: Salmonella enterica, MH agar, 37°C, 18 hours, read-out: MIC
# Method: as §2, §3
# Proteus vulgaris HX-19 = assay: as above; assay type: cell-based; conditions: Proteus vulgaris HX-19; MH agar, 37°C, 18 hours
# Method: as §2, §3
# [20] = test system: Morganella morganii IFO3848; assay: as above; assay type: cell-based; conditions: MH agar, 37°C, 18 hours
# Method: as §2, §3
# [21] = test system: Pseudomonas aeruginosa IFO 3445; assay: as above; assay type: cell-based; conditions: MH agar, 37°C, 18 hours
# Method: as §2, §3
# [22] = test system: Providencia rettgeri IFO 3850; assay: as above; assay type: cell-based; conditions: MH agar, 37°C, 18 hours
# Method: as §2, §3
# [23] = test system: Salmonella schottmuelleri 8006; assay: as above; assay type: cell-based; conditions: MH agar, 37°C, 18 hours
# Method: as §2, §3
# [24] = test system: Proteus mirabilis IFO3849; assay: as above; assay type: cell-based; conditions: Proteus mirabilis IFO3849; MH agar, 37°C, 18 hours
# Method: as §2, §3
# Proteus vulgaris OX-19 = assay: as above; assay type: cell-based; conditions: Proteus vulgaris OX-19; MH agar, 37°C, 18 hours
# Method: as §2, §3
# [25] = test system: Serratia marcescens IAM1184; assay: as above; assay type: cell-based; conditions: MH agar, 37°C, 18 hours
# Method: as §2, §3
# [26] = test system: male mice of CrjCD(SD) strain; assay: Toxicity, intravenous administration to mice, observation for one week; assay type: in vivo; conditions: 500 mg/kg administered intravenously; group of 10 male mice
# Method: Toxicological studies were carried out using a group of 10 male mice of CrjCD(SD) strain weighing from 20 to 23 grams. A solution containing the crystalline carbapenem compound (20) of the present invention obtained by Example 11 was administered intravenously to the mice and subjected to observations for one week.
smiles,measurement,setting,value
"C[C@@H](O)[C@H]1C(=O)N2C(C(=O)[O-])=C(SCc3cs[n+](C)n3)[C@H](C)[C@H]12 [Crystalline Compd. (20), (1R,5S,6S)-2-[(2-methyl-1,2,3-thiadiazolium-4-yl)methyl]thio-6-[(R)-1-hydroxyethyl]-1-methyl-carbapenem-3-carboxylate]",concentration to inhibit the growth of all the test microorganisms,[1],6.25 µg/mL
same,percent of strains inhibited at 3.13 µg/mL,"[1]; Pseudomonas aeruginosa, read-out: test microorganisms whose growth is inhibited",~99%
same,MIC,[2],0.78 µg/mL
same,MIC,Proteus morganii GN 5375,1.56 µg/mL
same,MIC,[3],0.39 µg/mL
same,MIC,[4],0.05 µg/mL
same,MIC,[5],0.1 µg/mL
same,MIC,[6],0.39 µg/mL
same,MIC,Proteus vulgaris GN 7919,0.78 µg/mL
same,MIC,[7],0.1 µg/mL
same,MIC,Proteus morganii GN 5407,1.56 µg/mL
same,MIC,Proteus vulgaris GN 76,3.13 µg/mL
same,MIC,[8],1.56 µg/mL
same,MIC,[9],1.56 µg/mL
same,MIC,[10],3.13 µg/mL
same,MIC,Proteus vulgaris GN 4413,3.13 µg/mL
same,MIC,Escherichia coli No. 96,0.05 µg/mL
same,MIC,Serratia marcescens L-82,0.2 µg/mL
same,MIC,Escherichia coli GN 5482,0.05 µg/mL
same,MIC,[11],0.39 µg/mL
same,MIC,[12],0.2 µg/mL
same,MIC,[13],0.2 µg/mL
same,MIC,Proteus morganii GN 5307,0.78 µg/mL
same,MIC,[14],3.13 µg/mL
same,MIC,Serratia marcescens L-65,0.39 µg/mL
same,MIC,[15],0.78 µg/mL
same,MIC,[16],0.78 µg/mL
same,MIC,[17],0.2 µg/mL
same,MIC,[18],1.56 µg/mL
same,MIC,Salmonella typhi 901,0.013 µg/mL
same,MIC,[19],0.78 µg/mL
same,MIC,Proteus vulgaris HX-19,1.56 µg/mL
same,MIC,[20],0.2 µg/mL
same,MIC,[21],0.39 µg/mL
same,MIC,[22],0.025 µg/mL
same,MIC,[23],0.39 µg/mL
same,MIC,[24],3.13 µg/mL
same,MIC,Proteus vulgaris OX-19,1.56 µg/mL
same,MIC,[25],0.78 µg/mL
same,"toxicity, observations for one week",[26],alive without any abnormal observations
